Experiments:
[1] = rats; cited from earlier work
[2] = biological target: T1, cow milk-derived xanthine oxidase (XOD) (Bos taurus, UniProt P80457); experiment: Xanthine oxidase inhibition activity (inhibition of uric acid formation); assay type: biochemical; conditions: for IC50: xanthine 100 μM, XOD 10 mU/mL, 50 mM phosphate buffer pH 7.4, room temperature 15 minutes, O.D. 292 nm; for xanthine oxidase inhibition activity compared with allopurinol: in words, versus allopurinol
T1 construct: cow milk-derived xanthine oxidase (XOD) (10 mU/mL); from tissue; host or cells: cow milk
Experimental: In a 50 mM phosphate buffer (pH 7.4), xanthine (100 μM), cow milk-derived xanthine oxidase (XOD) (10 mU/mL), and a test compound were mixed and the mixture was incubated at room temperature for 15 minutes.

[3] = patients administered allopurinol; cited from earlier work

T1 sequence (P80457 whole entry): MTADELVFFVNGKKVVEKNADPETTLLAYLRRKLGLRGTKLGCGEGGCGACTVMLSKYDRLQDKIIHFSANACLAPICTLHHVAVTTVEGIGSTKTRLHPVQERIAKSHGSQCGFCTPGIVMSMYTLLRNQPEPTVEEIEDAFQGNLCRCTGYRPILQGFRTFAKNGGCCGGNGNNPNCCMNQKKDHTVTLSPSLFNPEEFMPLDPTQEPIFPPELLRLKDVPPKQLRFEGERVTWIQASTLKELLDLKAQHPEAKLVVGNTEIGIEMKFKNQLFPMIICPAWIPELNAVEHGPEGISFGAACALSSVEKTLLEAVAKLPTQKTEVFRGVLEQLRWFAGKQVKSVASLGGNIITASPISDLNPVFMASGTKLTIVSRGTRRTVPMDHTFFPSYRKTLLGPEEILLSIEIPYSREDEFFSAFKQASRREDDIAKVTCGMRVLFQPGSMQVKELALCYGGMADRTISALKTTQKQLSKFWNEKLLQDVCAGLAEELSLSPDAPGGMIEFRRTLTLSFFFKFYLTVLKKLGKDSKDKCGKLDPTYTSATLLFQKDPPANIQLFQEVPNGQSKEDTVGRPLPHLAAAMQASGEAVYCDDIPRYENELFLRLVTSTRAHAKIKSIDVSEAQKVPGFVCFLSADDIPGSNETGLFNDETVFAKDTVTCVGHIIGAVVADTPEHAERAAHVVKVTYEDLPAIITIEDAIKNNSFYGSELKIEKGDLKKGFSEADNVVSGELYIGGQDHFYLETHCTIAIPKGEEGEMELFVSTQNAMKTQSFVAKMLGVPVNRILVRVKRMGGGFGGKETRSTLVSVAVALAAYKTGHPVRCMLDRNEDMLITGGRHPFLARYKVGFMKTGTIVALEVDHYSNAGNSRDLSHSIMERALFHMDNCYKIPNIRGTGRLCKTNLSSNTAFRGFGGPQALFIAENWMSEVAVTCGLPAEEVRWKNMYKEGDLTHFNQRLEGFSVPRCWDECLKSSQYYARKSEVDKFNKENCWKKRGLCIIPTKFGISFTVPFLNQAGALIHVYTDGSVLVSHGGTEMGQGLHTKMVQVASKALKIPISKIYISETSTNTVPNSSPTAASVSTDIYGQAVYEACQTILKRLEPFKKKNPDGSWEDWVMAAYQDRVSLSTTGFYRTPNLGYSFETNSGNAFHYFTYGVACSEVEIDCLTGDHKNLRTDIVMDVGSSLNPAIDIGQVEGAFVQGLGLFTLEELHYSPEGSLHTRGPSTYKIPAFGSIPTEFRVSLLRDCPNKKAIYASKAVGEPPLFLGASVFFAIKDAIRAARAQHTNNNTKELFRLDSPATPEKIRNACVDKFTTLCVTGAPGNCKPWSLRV

IC50 [2] [nM]	melting point [°C]	Structure (SMILES)	other results
> 10000	262	O=c1[nH]c2nc[nH]c2c2ncnn12 [II-1]	
> 10000	277	Cc1nc2c3[nH]cnc3[nH]c(=O)n2n1 [II-2]	
2570	> 300	O=c1[nH]c2nc[nH]c2c2nc(-c3ccccc3)nn12 [II-3]	
66	285	O=c1[nH]c2nc[nH]c2c2nc(-c3ccc(Cl)cc3)nn12 [II-4]	
130	288	COc1ccc(-c2nc3c4[nH]cnc4[nH]c(=O)n3n2)cc1 [II-5]	
9200	> 270	CCCCCCCc1nc2c3[nH]cnc3[nH]c(=O)n2n1 [II-6]	
2400	> 300	Cc1ccc(-c2nc3c4[nH]cnc4[nH]c(=O)n3n2)cc1 [II-7]	
4270	> 300	O=c1[nH]c2nc[nH]c2c2nc(-c3ccc([N+](=O)[O-])cc3)nn12 [II-8]	
2010	> 283	COc1cc(-c2nc3c4[nH]cnc4[nH]c(=O)n3n2)cc(OC)c1OC [II-9]	
1480	> 285	O=c1[nH]c2nc[nH]c2c2nc(-c3ccc(O)c(O)c3)nn12 [II-10]	
> 10000	> 330	Cn1cnc2c1c1nc(-c3ccc(Cl)cc3)nn1c(=O)n2C [II-14]	
> 10000	> 330	Cn1cnc2c1c1nc(-c3ccc([N+](=O)[O-])cc3)nn1c(=O)n2C [II-17]	
> 10000	> 330	Cc1nc2[nH]c(=O)n3nc(-c4ccc([N+](=O)[O-])cc4)nc3c2[nH]1 [II-24]	
9910	> 330	O=c1[nH]c2nc(-c3ccccc3)[nH]c2c2ncnn12 [II-25]	xanthine oxidase inhibition activity compared with allopurinol [2]: higher xanthine oxidase inhibition activity than allopurinol
> 10000	> 330	O=c1[nH]c2nc(-c3ccccc3)[nH]c2c2nc(-c3ccc([N+](=O)[O-])cc3)nn12 [II-31]	
1090	> 330	O=c1[nH]c2nc(-c3ccc(Cl)cc3)[nH]c2c2ncnn12 [II-32]	xanthine oxidase inhibition activity compared with allopurinol [2]: higher xanthine oxidase inhibition activity than allopurinol
	264	Cn1cnc2c1c1nncn1c(=O)n2C [III-1, 6,9-dimethyl-9H-1,2,4-triazolo[3,4-i]purin-5(6H)-one]	
	270	Cc1nnc2c3c(ncn3C)n(C)c(=O)n12 [III-2, 3,6,9-trimethyl-9H-1,2,4-triazolo[3,4-i]purin-5(6H)-one]	

The next lines start with the molecule.

Structure (SMILES)	IC50 [2] [nM]	melting point [°C]	other results
Cc1nc(-c2ccc(OCC(C)C)c(C#N)c2)sc1C(=O)O [Febuxostat]			excreted through non-renal excretion pathways [1]: about 50%
O=c1nc(NN=Cc2ccc(F)cc2)c2[nH]cnc2[nH]1 [I-1]	38		
O=c1nc(NN=Cc2ccc(Cl)cc2)c2[nH]cnc2[nH]1 [I-2]	25		
CN(C)c1ccc(C=NNc2nc(=O)[nH]c3nc[nH]c23)cc1 [I-3]	75		
O=c1nc(NN=Cc2ccc([N+](=O)[O-])cc2)c2[nH]cnc2[nH]1 [I-4]	45		
COc1ccc(C=NNc2nc(=O)[nH]c3nc[nH]c23)cc1 [I-5]	57		
O=c1nc(NN=Cc2ccc3c(c2)OCO3)c2[nH]cnc2[nH]1 [I-6]	63		
O=c1nc(NN=Cc2ccc(O)cc2)c2[nH]cnc2[nH]1 [I-7]	45		
CCCCCCCC=NNc1nc(=O)[nH]c2nc[nH]c12 [I-8, 6-n-octylidenehydrazino-7H-purin-2(3H)-one]	2020	190	
O=c1nc(NN=Cc2ccccc2)c2[nH]cnc2[nH]1 [I-9]	50	300	
Cc1ccc(C=NNc2nc(=O)[nH]c3nc[nH]c23)cc1 [I-10]	20	> 300	
COc1cc(C=NNc2nc(=O)[nH]c3nc[nH]c23)cc(OC)c1OC [I-11]	208		
O=c1nc(NN=Cc2ccc(O)c(O)c2)c2[nH]cnc2[nH]1 [I-12]	349	> 300	
O=c1nc(NN=Cc2ccc(O)c(O)c2O)c2[nH]cnc2[nH]1 [I-13]	1480	> 300	
COc1ccccc1C=NN(C)c1nc(=O)[nH]c2nc[nH]c12 [I-14]	79		
COc1cccc(C=NN(C)c2nc(=O)[nH]c3nc[nH]c23)c1 [I-15]	100		

Structure (SMILES)	IC50 [2] [nM]	melting point [°C]	other results
COc1ccc(C=NN(C)c2nc(=O)[nH]c3nc[nH]c23)cc1 [I-16]	76		
CN(N=Cc1ccc(F)cc1)c1nc(=O)[nH]c2nc[nH]c12 [I-17]	116		
CN(N=Cc1ccc(O)cc1)c1nc(=O)[nH]c2nc[nH]c12 [I-18]	93		
CCCCCCCC=NN(C)c1nc(=O)[nH]c2nc[nH]c12 [I-19, 6-(1-methyl-2-n-octylidenehydrazino)-7H-purin-2(3H)-one]	> 10000	248	
COc1cc(C=NN(C)c2nc(=O)[nH]c3nc[nH]c23)cc(OC)c1OC [I-20]	> 10000	> 300	
CN(N=Cc1ccc(O)c(O)c1)c1nc(=O)[nH]c2nc[nH]c12 [I-21]	> 10000	> 300	
CN(N=Cc1ccc(O)c(O)c1O)c1nc(=O)[nH]c2nc[nH]c12 [I-22]	> 10000	> 300	
Cc1nc2[nH]c(=O)nc(NN=Cc3ccc([N+](=O)[O-])cc3)c2[nH]1 [I-33, 8-methyl-6-(4-nitrobenzylidenehydrazino)-7H-purin-2(3H)-one]		> 330	
O=c1nc(NN=Cc2ccccc2)c2[nH]c(-c3ccccc3)nc2[nH]1 [I-34]	> 10000	318	
O=c1nc(NN=Cc2ccc(Cl)cc2)c2[nH]c(-c3ccccc3)nc2[nH]1 [I-35]	> 10000	> 330	
Cc1ccc(C=NNc2nc(=O)[nH]c3nc(-c4ccccc4)[nH]c23)cc1 [I-36]	> 10000	321	
COc1ccc(C=NNc2nc(=O)[nH]c3nc(-c4ccccc4)[nH]c23)cc1 [I-37]	9210	314	xanthine oxidase inhibition activity compared with allopurinol [2]: higher xanthine oxidase inhibition activity than allopurinol
O=c1nc(NN=Cc2ccc([N+](=O)[O-])cc2)c2[nH]c(-c3ccccc3)nc2[nH]1 [I-38, 6-(4-nitrobenzylidenehydrazino)-8-phenyl-7H-purin-2(3H)-one]	4480	> 330	xanthine oxidase inhibition activity compared with allopurinol [2]: higher xanthine oxidase inhibition activity than allopurinol
O=c1nc(NN=Cc2ccc([N+](=O)[O-])cc2)c2[nH]c(-c3ccc(Cl)cc3)nc2[nH]1 [I-43, 8-(4-chlorophenyl)-6-(4-nitrobenzylidenehydrazino)-7H-purin-2(3H)-one]		229	
Oc1ncnc2[nH]ncc12 [allopurinol]			patients suffering from side effects (severe skin disorders, hypersensitivity vasculitis) [3]: three to five

— US20210347778A1, “HYDRAZINOPURINE COMPOUND AND TRIAZOLOPURINE COMPOUND FOR INHIBITING XANTHINE OXIDASE” (TERA STONE CO., LTD, priority 2018, published 2021)
